Experimental data as given in patent US3948886A, “6-Substituted purine 3',5'-cyclic nucleotides” (ICN Pharmaceuticals, Inc., priority 1973, dated 1976).

Key:
Herpes virus Type 1 = assay: Antiviral activity, virus rating (VR) method, Herpes Type 1; format: cell-based; conditions: virus rating (VR) method of Sidwell et al.
Text: (§1) Tested according to the virus rating (VR) method of Sidwell et al., Proc. Soc.

Rhino viruses = assay: Antiviral activity, virus rating (VR) method, Rhino viruses; format: cell-based; conditions: virus rating (VR) method of Sidwell et al.
Text: as §1

[1] = tested on: cyclic AMP-dependent protein kinase; assay: Activation of bovine brain cyclic AMP-dependent protein kinase; format: biochemical; conditions: pH 6, relative to cyclic AMP
Description: Cyclic AMP-dependent protein kinase was purified to the stage of DEAE cellulose chromatography from bovine brain using the procedure of Miyamoto et al., J. Biol. Chem. 244, 6395 (1969). Protein kinase activity was assayed by measuring the incorporation of ^32 P-phosphate into histone from γ-^32 P labeled ATP. The incubation mixture contained (amounts in μmoles): sodium glycerol phosphate buffer, pH 6, 10; γ-^32 P-ATP, ~2 × 10^6 cpm, 0.001; magnesium acetate, 2; sodium fluoride, 2; EDTA, 0.06; histone, 40 - 400 μg; cAMP, cGMP or analog as indicated; purified protein kinase, 5 - 25 μg in a final volume of 0.2 ml. Activation constants (Ka) were determined according to the procedure of Muneyama et al., supra. The Ka values relative to cyclic AMP (Ka') are reported in Table IV and compared to Ka' for compound 6.

[2] = tested on: cyclic AMP phosphodiesterase; assay: Resistance to phosphodiesterase (PDE) degradation; format: biochemical; conditions: rabbit kidney PDE, pH 7.5, 37°C
adenyl cyclase = assay: Adenyl cyclase inhibition (guinea pig lung particulate fraction); format: biochemical; conditions: guinea pig lung particulate enzyme fraction, 1.2 mM ATP, pH 7.8, 15 min at 37°; read-out: I50 (concentration required for 50% enzyme inhibition)
Description: Lunt alveolar tissue was obtained from normal guinea pigs. The tissue was minced and a Duall tissue grinder was used to prepare a 20% homogenate in chilled buffer containing 1 mM MgCl 2 and 2 mM glycylglycine, pH 7.5 (F. Murad et al., J. Biol. Chem. 237: 1233, 1962). The homogenate was strained through four layers of gauze and centrifuged at 1000xg for 15 min at 4°. The pellet was resuspended in the original volume of buffer and recentrifuged. The pellet was again resuspended in buffer and 0.5 - 1.0 ml aliquots were sealed in ampoules and stored under liquid nitrogen for future assay of adenylate cyclase activity. […] Protein was determined by the method of Lowry et al., J. Biol. Chem. 193: 265, 1951, with crystalline bovine serum albumin as standard.
Adenylate cyclase activity was assayed in duplicate by a modification of previously published methods (G. Krishna et al., J. Pharmacol. Exp. Therap. 163: 379, 1968; G. S. Levey and S. E. Epstein, Circ. Res. 24: 151, 1969). The total assay volume was 0.59 ml and contained 1.8 mM MgCl2, 0.8 mM glycylglycine, 32 mM Tris (pH 7.8), 1.2 mM ATP, 3-5×10^6 cpm [α-^32 P] ATP, and particulate enzyme fraction (100-150 μg. lung protein). Concentrated solutions of compounds to be tested were prepared fresh daily by dissolution in water, ethanol, or dimethyl sulfoxide; 5-10 μl of the solution was added to the incubation mixture to give the desired final concentration. Control assays (without compound) contained solvent alone.
The incubation mixture was reacted for 15 min at 37° in a shaker, and then boiled for 3 min to inactivate the cyclase. One hundred μl of a solution containing 4 μmoles ATP, 1.25 μmoles cyclic AMP, and 0.15μCi [^3 H] cyclic AMP was added to the reaction mixture. […] After centrifugation, 1 ml of supernatant containing [^32 P] cyclic AMP and [^3 H] cyclic AMP was mixed with 15 ml of scintillator (100 g naphthalene, 14 g PPO, and 0.1 g dimethyl POPOP per 2 l dioxane) and counted. […]

L-929 cells = assay: Interferon potentiation in vitro with L-929 cells; format: cell-based
Herpes virus Type 2 = assay: Antiviral activity, virus rating (VR) method, Herpes Type 2; format: cell-based; conditions: virus rating (VR) method of Sidwell et al.
Text: as §1

[3] = tested on: 6-methylthio-purine riboside-resistant Ehrlich carcinomas; assay: Growth inhibition of surgically implanted Ehrlich carcinomas in mice; format: in vivo; conditions: intraperitoneally, 83 μmoles/Kg

| SMILES | activity against Herpes virus Type 1 (Herpes virus Type 1) | activity against Rhino viruses (Rhino viruses) | Ka' (= Ka, cyclic AMP/Ka analog) [1] | rate of analog hydrolysis relative to cyclic AMP (α) [2] | IC50 (adenyl cyclase) | interferon potentiation (L-929 cells) | activity against Herpes virus Type 2 (Herpes virus Type 2) | inhibition of growth of Ehrlich carcinomas [3] |
| --- | --- | --- | --- | --- | --- | --- | --- | --- |
| CCSc1ncnc2c1ncn2[C@@H]1O[C@@H]2COP(=O)(O)O[C@H]2[C@H]1O [Compound 7b, 6-Ethylthio-9-β-D-ribofuranosylpurine 3', 5'-cyclic phosphate] | exhibited activity | exhibited activity | 2.0 | 0.57 | 1000 µM | marked interferon potentiation | – | – |
| O=P1(O)OC[C@H]2O[C@@H](n3cnc4c(=S)[nH]cnc43)[C@H](O)[C@@H]2O1 [Compound 6, 9-β-D-Ribofuranosylpurin-6-thione 3', 5'-cyclic phosphate, reference compound] | – | – | 0.56 | 1.06 | – | did not | – | – |
| O=P1(O)OC[C@H]2O[C@@H](n3cnc4c(SCc5ccccc5)ncnc43)[C@H](O)[C@@H]2O1 [Compound 7c, 6-Benzylthio-9-β-D-ribofuranosylpurine 3', 5'-cyclic phosphate] | – | – | 1.25 | 0.54 | 7000 µM | – | exhibited activity | inhibited growth |
| CSc1ncnc2c1ncn2[C@@H]1O[C@@H]2COP(=O)(O)O[C@H]2[C@H]1O [Compound 7a, 6-Methylthio-9-β-D-ribofuranosylpurine 3', 5'-cyclic phosphate] | exhibited activity | – | 1.45 | 0.41 | 340 µM | marked interferon potentiation | exhibited activity | – |
